In patent US4874856A, “3-(substituted)propenyl-7-(aminothiazolylacetamido) ceph-3-em-4-carboxylic acids and esters thereof” (Bristol-Myers Company, priority 1987, dated 1989):
Values after ≈ are worked out from the molar mass of the structure shown. Like-named read-outs stand apart in the source and are kept apart here.

Legend:
PCresistant S. aureus = assay: In vitro MIC, two-fold serial agar dilution in Mueller-Hinton agar, GpIb strains; assay type: cell-based; details: Staphylococcus aureus, 5 strains, read-out: Geometric mean of MIC, GpIb
Procedure: (§1) The in vitro antibacterial activity of the parent cephalosporanic acids of Formula I wherein R^4 is hydrogen is shown in Table 1 in terms of geometric mean of the Minimum Inhibitory Concentrations (MIC's) which were determined by the two-fold serial agar dilution method in Mueller-Hinton agar against 25 strains of test organisms in five groups.
GpIb: PCresistant S. aureus

[1] = tested on: CETresistant E. coli (3) and K. pneumoniae (2); assay: In vitro MIC, two-fold serial agar dilution in Mueller-Hinton agar, GnIb strains; assay type: cell-based; details: Escherichia coli, 5 strains, read-out: Geometric mean of MIC, GnIb
Procedure: as §1
GnIb: CETresistant E. coli (3) and K. pneumoniae (2)

[2] = Mouse blood levels after oral administration (Table 2); assay type: in vivo
[3] = tested on: M. morcanii (1), E. cloacae (2) and S. marcescens (2); assay: In vitro MIC, two-fold serial agar dilution in Mueller-Hinton agar, GnII strains; assay type: cell-based; details: Enterobacter cloacae, read-out: Geometric mean of MIC, GnII
Procedure: as §1
GnII: M. morcanii (1), E. cloacae (2) and S. marcescens (2)

[4] = tested on: Penicillin(PC)sensitive S. aureus; assay: In vitro MIC, two-fold serial agar dilution in Mueller-Hinton agar, Gp-Ia strains; assay type: cell-based; details: Staphylococcus aureus; GpIa, 5 strains; read-out: Geometric mean of MIC, GpIa
Procedure: as §1
Gp-Ia: Penicillin(PC)sensitive S. aureus

[5] = tested on: Cephalothin(CET)sensitive E. coli (2 strains), K. pneumoniae (1) an P. mirabilis (2); assay: In vitro MIC, two-fold serial agar dilution in Mueller-Hinton agar, GnIa strains; assay type: cell-based; details: 5 strains, read-out: Geometric mean of MIC, GnIa
Procedure: as §1
GnIa: Cephalothin(CET)sensitive E. coli (2 strains), K. pneumoniae (1) an […]

[6] = Bioavailability in mouse as reflected by blood levels (Table 5); assay type: in vivo; details: oral, Table 5 (definition given as drawing 18)
Source text: (§2) Tables 4 and 5 show the in vivo activity of pro-drug esters 88-92 including the bioavailability thereof as reflected by blood levels.

E. coli Juhl = assay: Evaluation in vivo (mouse), oral PD50 against E. coli Juhl; details: Escherichia coli
Source text: as §2

S. aureus Smith = assay: Evaluation in vivo (mouse), oral PD50 against S. aureus Smith; details: Staphylococcus aureus
Source text: as §2

[7] = Evaluation in vivo (mouse), blood concentration (Table 4); details: po, treated orally, single 100 mg/kg dose
Procedure: as §2
*treated orally, single 100 mg/kg. dose

[8] = mouse blood, 20 mg/kg, read-out: AUC
[9] = mouse blood, 20 mg/kg, read-out: T 1/2 (converted)
[10] = mouse blood, 100 mg/kg, read-out: AUC
[11] = mouse blood, 100 mg/kg, read-out: Cmax
[12] = mouse blood, 100 mg/kg, read-out: T 1/2 (converted)

SMILES	MIC (PCresistant S. aureus) [µg/mL]	MIC [1] [µg/mL]	MIC [3] [µg/mL]	MIC [4] [µg/mL]	MIC [5] [µg/mL]	bioavailability [6] [%]	ED50 (E. coli Juhl; Table 5) [mg/kg]	ED50 (S. aureus Smith; Table 5) [mg/kg]	other results
N[C@@H](C(=O)N[C@@H]1C(=O)N2C(C(=O)O)=C(Cl)CS[C@H]12)c1ccccc1 [Cefaclor, reference compound]	4.7 (≈ 12.8 µM)	11 (≈ 29.9 µM)	> 100	0.7 (≈ 1.9 µM)	0.92 (≈ 2.5 µM)	–	–	–	AUC ([2]; mouse, in vivo, 20 mg/kg): 8900 ng·h/mL; half-life ([2]; mouse, in vivo, 20 mg/kg): 0.91 h; AUC ([2]; mouse, in vivo, 100 mg/kg): 35000 ng·h/mL; half-life ([2]; mouse, in vivo, 100 mg/kg): 1.2 h
CC1=C(C(=O)O)N2C(=O)[C@@H](NC(=O)[C@H](N)c3ccc(O)cc3)[C@H]2SC1 [Cefadroxil, reference compound]	3.6 (≈ 9.91 µM)	17 (≈ 46.8 µM)	> 100	1.4 (≈ 3.85 µM)	8.3 (≈ 22.8 µM)	–	–	–	AUC [2, 8]: 16000 ng·h/mL; half-life [2, 9]: 1.4 h; AUC [2, 10]: 69000 ng·h/mL; Cmax [2, 11]: 57000 ng/mL; half-life [2, 12]: 1.6 h
C=CC1=C(C(=O)O)N2C(=O)[C@@H](NC(=O)/C(=N\OCC(=O)O)c3csc(N)n3)[C@H]2SC1 [Cefixime, cefixime]	12.5 (≈ 27.6 µM)	3.1 (≈ 6.84 µM)	3.2 (≈ 7.06 µM)	4.7 (≈ 10.4 µM)	0.016 (≈ 0.0353 µM)	–	–	–	AUC [2, 8]: 25000 ng·h/mL; Cmax ([2]; mouse blood, 20 mg/kg, read-out: Cmax): 10000 ng/mL; half-life [2, 9]: 1.5 h; AUC [2, 10]: 75000 ng·h/mL; Cmax [2, 11]: 28000 ng/mL; half-life [2, 12]: 1.6 h
C/C=C\C1=C(C(=O)OC(C)OC(C)=O)N2C(=O)[C@@H](NC(=O)/C(=N\O)c3csc(N)n3)[C@H]2SC1 (stereo partly drawn) [Compound 30, 1-acetoxyethyl 7β-[(Z)-2-(2-aminothiazol-4-yl)-2-(hydroxyimino)acetamido]-3-[(Z)-prop-1-en-1-yl]-3-cephem-4-carboxylate]	–	–	–	–	–	76	1.1	2	AUC ([2]; mouse, in vivo, 20 mg/kg): 16000 ng·h/mL; Cmax ([2]; mouse, in vivo, 20 mg/kg): 9900 ng/mL; half-life ([2]; mouse, in vivo, 20 mg/kg): 1 h; AUC ([2]; mouse, in vivo, 100 mg/kg): 61000 ng·h/mL; Cmax ([2]; mouse, in vivo, 100 mg/kg): 36000 ng/mL; half-life ([2]; mouse, in vivo, 100 mg/kg): 1.3 h
C/C=C/C1=C(C(=O)O)N2C(=O)[C@@H](NC(=O)/C(=N\O)c3csc(N)n3)[C@H]2SC1 [Compound 33, 7β-[(Z)-2-(2-aminothiazol-4-yl)-2-(hydroxyimino)acetamido]-3-[(E)-prop-1-en-1-yl]-3-cephem-4-carboxylic acid]	0.61 (≈ 1.49 µM)	1.4 (≈ 3.42 µM)	22 (≈ 53.7 µM)	0.23 (≈ 0.562 µM)	0.46 (≈ 1.12 µM)	–	–	–	–
CC(=O)OC/C=C\C1=C(C(=O)O)N2C(=O)[C@@H](NC(=O)/C(=N\O)c3csc(N)n3)[C@H]2SC1 [Compound 37, 7β-[(Z)-2-(2-aminothiazol-4-yl)-2-(hydroxyimino)acetamido]-3-[(Z)-3-acetoxyprop-1-en-1-yl]-3-cephem-4-carboxylic acid]	0.4 (≈ 0.856 µM)	0.1 (≈ 0.214 µM)	1.1 (≈ 2.35 µM)	0.17 (≈ 0.364 µM)	0.025 (≈ 0.0535 µM)	–	–	–	–
C/C=C\C1=C(C(=O)O)N2C(=O)[C@@H](NC(=O)/C(=N\OC(C)=O)c3csc(N)n3)[C@H]2SC1 [Compound 53, 7β-[(Z)-2-(2-aminothiazol-4-yl)-2-(acetoxyimino)acetamido]-3-[(Z)-prop-1-en-1-yl]-3-cephem-4-carboxylic acid]	0.4 (≈ 0.886 µM)	0.26 (≈ 0.576 µM)	3.6 (≈ 7.97 µM)	0.17 (≈ 0.377 µM)	0.057 (≈ 0.126 µM)	–	–	–	–
C/C=C\C1=C(C(=O)OC(C)OC(C)=O)N2C(=O)[C@@H](NC(=O)/C(=N\OC(C)=O)c3csc(N)n3)[C@H]2SC1 (stereo partly drawn) [Compound 55, 1-acetoxyethyl 7β-[(Z)-2-(2-aminothiazol-4-yl)-2-(acetoxyimino)acetamido]-3-[(Z)-prop-1-en-1-yl]-3-cephem-4-carboxylate]	–	–	–	–	–	–	–	–	AUC ([2]; mouse, in vivo, 20 mg/kg): 9400 ng·h/mL; Cmax ([2]; mouse, in vivo, 20 mg/kg): 7600 ng/mL; half-life ([2]; mouse, in vivo, 20 mg/kg): 0.8 h; AUC ([2]; mouse, in vivo, 100 mg/kg): 40000 ng·h/mL; Cmax ([2]; mouse, in vivo, 100 mg/kg): 27000 ng/mL; half-life ([2]; mouse, in vivo, 100 mg/kg): 0.8 h
C/C=C\C1=C(C(=O)OCc2oc(=O)oc2C)N2C(=O)[C@@H](NC(=O)/C(=N\O)c3csc(N)n3)[C@H]2SC1 [Compound 88, (5-methyl-2-oxo-1,3-dioxolen-4-yl)methyl 7β-[(Z)-2-(2-aminothiazol-4-yl)-2-(hydroxyimino)-acetamido]-3-[(Z)-prop-1-en-1-yl]-3-cephem-4-carboxylate]	–	–	–	–	–	–	–	–	AUC [7]: 44000 ng·h/mL; Cmax [7]: 16000 ng/mL; ED50 (E. coli Juhl; Table 4): 2.7 mg/kg; ED50 (S. aureus Smith; Table 4): 1.1 mg/kg
C/C=C\C1=C(C(=O)OC(C)OC(=O)OCC)N2C(=O)[C@@H](NC(=O)/C(=N\O)c3csc(N)n3)[C@H]2SC1 (stereo partly drawn) [Compound 89, 1-(ethoxycarbonyloxy)ethyl 7β-[(Z)-2-(2-aminothiazol-4-yl)-2-(hydroxyimino)-acetamido]-3-[(Z)-prop-1-en-1-yl]-3-cephem-4-carboxylate]	–	–	–	–	–	–	–	–	AUC [7]: 74000 ng·h/mL; Cmax [7]: 32000 ng/mL; ED50 (E. coli Juhl; Table 4): 0.67 mg/kg; ED50 (S. aureus Smith; Table 4): 0.77 mg/kg
C/C=C\C1=C(C(=O)OC(C)OC(=O)OC2CCCCC2)N2C(=O)C(NC(=O)/C(=N\O)c3csc(N)n3)[C@H]2SC1 (some centres unmarked) [Compound 90, 1-(cyclohexyloxycarbonyloxy)ethyl 7-[(Z)-2-(2-aminothiazol-4-yl)-2-(hydroxyimino)acetamido]-3-[(Z)-1-propenyl]-3-cephem-4-carboxylate]	–	–	–	–	–	78	1.5	3.2	–
C/C=C\C1=C(C(=O)OC(C)OC(=O)C(C)(C)C)N2C(=O)C(NC(=O)/C(=N\O)c3csc(N)n3)[C@H]2SC1 (some centres unmarked) [Compound 91, 1-(pivaloyloxy)ethyl 7-[(Z)-2-(2-aminothiazol-4-yl)-2-(hydroxyimino)acetamido]-3-[(Z)-1-propenyl]-3-cephem-4-carboxylate]	–	–	–	–	–	60	3.5	2	–
C/C=C\C1=C(C(=O)OC(C)OC(=O)CC2CCCCC2)N2C(=O)C(NC(=O)/C(=N\O)c3csc(N)n3)[C@H]2SC1 (some centres unmarked) [Compound 92, 1-(cyclohexylacetoxy)ethyl 7-[(Z)-2-(2-aminothiazol-4-yl)-2-(hydroxyimino)acetamido]-3-[(Z)-1-propenyl]-3-cephem-4-carboxylate]	–	–	–	–	–	87	1.4	2.9	–
